Reference: patent publication US9592223B2, “Small molecule inhibitors of MALT1” (Cornell University, priority 2012, dated 2017)
Read-outs that look alike come from different tables or passages of the source.

Legend:
[1] = biological target: T1, paracaspase domain of MALT1 (residues 329-728) (Homo sapiens, UniProt Q9UDY8); experiment: HSQC NMR binding; details: HSQC titration
T1 construct: labeled MALT1 (329-728) was expressed in BL21 (DE3) E. coli; made in house; host or cells: E. coli BL21 (DE3)
T1 sequence (Q9UDY8 329-728): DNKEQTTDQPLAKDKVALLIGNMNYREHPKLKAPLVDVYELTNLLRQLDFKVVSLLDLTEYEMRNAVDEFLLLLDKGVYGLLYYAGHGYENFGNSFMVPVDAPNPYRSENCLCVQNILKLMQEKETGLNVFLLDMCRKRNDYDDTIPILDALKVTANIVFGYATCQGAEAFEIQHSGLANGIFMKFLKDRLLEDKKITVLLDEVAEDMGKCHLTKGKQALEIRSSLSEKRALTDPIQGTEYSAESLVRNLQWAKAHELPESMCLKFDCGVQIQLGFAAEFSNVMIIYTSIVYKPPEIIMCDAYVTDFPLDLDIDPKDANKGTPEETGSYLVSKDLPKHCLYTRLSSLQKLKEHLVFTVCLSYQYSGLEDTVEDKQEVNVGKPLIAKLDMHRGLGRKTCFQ
Procedure: Uniformly ^15N and ^13C labeled MALT1 (329-728) was expressed in BL21 (DE3) E. coli growing in M9 medium containing 1 g/l [^15N]ammonium chloride and 3 g/l [^13C]glucose (Cambridge Isotope Labs, Andover, Mass.) and purified from E. coli cell lysate as described in (Wiesmann et al., 2012).
Standard 2D ^1H ^13C NMR spectra of MALT1 (329-728) were recorded in samples containing 10.0 mg/ml protein in 50 mM HEPES (pH 7.5), 50 mM NaCl, and 10% D2O. NMR spectroscopy experiments were recorded on Bruker AV 500 MHz spectrometer (Bruker, Billerica, Mass.), at 310K.
Standard 2D ^1H ^15N HSQC spectra of MALT1 (329-728) were recorded in samples containing 70 μM protein in 25 mM Tris pH 7.5, 250 mM NaCl, 5 mM DTT, 10% D2O, 0.02% NaN3, 2% DMSO. HSQCs were run on a 600 MHz Varian (Varian, Palo Alto, Calif.) at 37° C.

[2] = biological target: T2, LZ-MALT1 (MALT1 (340-789) fused with a leucine zipper dimerization motif) (Homo sapiens, UniProt Q9UDY8); experiment: LZ-MALT1 fluorescence assay (Ac-LRSR-AMC cleavage), screening and concentration response; format: biochemical; details: concentration response assay, 0.122 μM to 62.5 μM; read-out: IC50 (biochemical activity, in vitro)
T2 construct: His tag (N); made in house; host or cells: E. coli
T2 sequence (Q9UDY8 with tags, fused parts or gaps limits assumed): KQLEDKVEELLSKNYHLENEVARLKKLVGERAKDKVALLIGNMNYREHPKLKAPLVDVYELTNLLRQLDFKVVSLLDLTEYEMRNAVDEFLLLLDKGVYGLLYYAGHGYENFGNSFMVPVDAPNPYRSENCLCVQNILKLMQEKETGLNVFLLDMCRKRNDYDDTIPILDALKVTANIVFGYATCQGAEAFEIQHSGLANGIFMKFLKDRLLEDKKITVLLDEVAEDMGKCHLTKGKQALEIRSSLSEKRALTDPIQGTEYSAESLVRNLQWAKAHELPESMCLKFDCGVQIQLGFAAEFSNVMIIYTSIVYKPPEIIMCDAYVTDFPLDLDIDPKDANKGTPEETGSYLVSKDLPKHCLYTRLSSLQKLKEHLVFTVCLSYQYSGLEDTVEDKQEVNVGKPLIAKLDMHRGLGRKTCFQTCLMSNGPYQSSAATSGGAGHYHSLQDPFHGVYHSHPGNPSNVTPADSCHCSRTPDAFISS
Description: We reasoned that MALT1 small-molecule inhibitors might be useful chemical tools for studying MALT1 biology and treating MALT1 addicted tumors. However, full-length MALT1 and its paracaspase domain (amino acids 340-789) are naturally present in physiological solutions as a monomer, which has very low proteolytic activity. Caspases generally must homodimerize for maximal catalytic activity (Pop et al., 2006; Walker et al., 1994; Yin et al., 2006) and accordingly the recently reported structures of the paracaspase domain of MALT1 in complex with a peptide inhibitor are dimeric (Wiesmann et al., 2012; Yu et al., 2011). […]
Ac-LRSR-AMC was used as substrate and reactions were measured with excitation/emission wavelengths of 360/465 nm. […] The final percent inhibition was calculated with the formula: {[fluorescencetest compound(T2-T1)−fluorescenceneg ctrl(T2−T1)]/[fluorescencepos ctrl(T2−T1)−fluorescenceneg ctrl(T2−T1)]}×100. […]
The screening consisted of a 20 μl reaction in 384-well black plates (Greiner Bio One, Wemmel, Belgium, catalogue #784076) with 100 nM LZ-MALT1, 200 μM Ac-LRSR-AMC, and 12.5 μM test compound in buffer A (20 mM HEPES pH 7.5, 10 mM KCl, 1.5 mM MgCl2, 1 mM EDTA, 1 mM DTT, 0.01% Triton X-100). The reactions were measured with excitation/emission wavelengths of 360/465 nm using Envision Multilabel Reader (Perkin-Elmer, Waltham, Mass.). […]

TMD8 cells = experiment: Growth inhibition, ATP-based luminescent assay; format: cell-based; details: Homo sapiens
Procedure: Cell proliferation was determined by ATP quantification using a luminescent method (CellTiter-Glo, Promega, Madison, Wis.) and Trypan blue dye-exclusion (Sigma, St. Louis, Mo.). Cell viability in drug-treated cells was normalized to their respective controls (fractional viability) and results are given as 1-fractional viability. CompuSyn software (Biosoft, Cambridge, UK) was used to determine drug concentrations inhibiting fractional growth compared to controls.
DLBCL cell lines were grown in exponential growth conditions during the 48 hr of treatment. Cell proliferation was determined by ATP quantification using a luminescent method (CellTiter-Glo, Promega, Madison, Wis.) and Trypan blue dye-exclusion (Sigma, St. Louis, Mo.). Luminescence was measured using the Synergy4 microplate reader (BioTek Instruments, Winooski, Vt.). Standard curves for each cell line were calculated by plotting the cell number (determined by the Trypan blue method) against their luminescence values and number of cells was calculated accordingly. Cell viability in drug-treated cells was normalized to their respective controls (fractional viability) and results are given as 1-fractional viability. […] Experiments were performed in triplicate.

For `COCCOc1nc(-c2ccc(Cl)c(Cl)c2)n(-c2ccc(NC(=O)CCl)cc2)n1` [MI-2], the “binding by NMR spectroscopy” value [1] was “robust interaction”, the IC50 [2] was roughly 5000 nM and the GI50 (TMD8 cells; TMD8, read-out: GI50 concentration) was 500 nM. The GI50 (TMD8 cells; TMD8, single dose, 48 hr, read-out: GI50) was 500 nM.
